In one data set the test system is rice flat sedge. The data set is described as follows: Test Example 3: herbicidal effect by foliage application, Wagner pot (Table 18, symbol E). Type of data set: in vivo, rice flat sedge (Cyperus iria). The note with it: 320 g/ha. The method in brief: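 Plants were sown in alluvial soil held under 0.1–0.5 cm standing water and grown 14 days in a greenhouse at 25–30 °C. An emulsifiable formulation, water-diluted to the set dose, was then sprayed onto the foliage, and effects were scored three weeks later using previously defined criteria.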

For data set [1], the system named is lambsquarters. As to the kind of experiment: Test Example 5: herbicidal effect by foliage application, plastic box (Table 20, symbol O). Type of data set: in vivo, lambsquarters (Chenopodium album). As to conditions: foliage application, AAH 320 g/ha, three weeks after application. The method in brief: (§1)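 Foliar spray test: emulsion formulation diluted in water to a set application rate, sprayed onto 14-day-old plants raised in diluvial soil at 25° C to 30° C under glass. Both herbicidal effect and crop effect rated visually three weeks later.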

The test system of the next data set is persian speedwell. The data set is described as follows: Test Example 4: herbicidal effect by soil treatment (Table 19, symbol R). It counts as in vivo, Persian speedwell (Veronica persica). The note with it: amount of applied herbicide 320 g/ha. The method in brief: (§2)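 Step 1: sow seeds in sterilized diluvial soil, cover ~1.5 cm. Step 2: spray diluted emulsion onto soil surface at predetermined rate. Step 3: greenhouse, 25–30° C, three weeks. Step 4: grade effect on each plant by earlier criteria.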

Data set [2] concerns wild oat. As to the kind of experiment: Test Example 4: herbicidal effect by soil treatment (Table 19, symbol I). Type of data set: in vivo, wild oat (Avena fatua). The note with it: amount of applied herbicide 320 g/ha. The gist of the method:
as §2

Another data set relates to blackgrass. As to the kind of experiment: Test Example 4: herbicidal effect by soil treatment (Table 19, symbol J). It counts as in vivo, blackgrass (Alopecurus myosuroides). As to conditions: amount of applied herbicide 320 g/ha. The method in brief:
as §2

Data set [3] has as its system lambsquarters. The data set is described as follows: Test Example 4: herbicidal effect by soil treatment (Table 19, symbol O). The note with it: amount of applied herbicide 320 g/ha. It counts as in vivo, lambsquarters (Chenopodium album). The gist of the method: as §2
The subject of another data set is green foxtail. As to the kind of experiment: Test Example 4: herbicidal effect by soil treatment (Table 19, symbol G). It counts as in vivo, green foxtail (Setaria viridis). As to conditions: amount of applied herbicide 320 g/ha. The method in brief:
as §2

Another data set deals with velvetleaf. As to the kind of experiment: Test Example 5: herbicidal effect by foliage application, plastic box (Table 20, symbol M). The note with it: foliage application, AAH 320 g/ha, three weeks after application. Type of data set: in vivo, velvetleaf (Abutilon theophrasti). The method in brief: as §1
The next data set concerns barnyard grass. The data set is described as follows: Test Example 5: herbicidal effect by foliage application, plastic box (Table 20, symbol H). It counts as in vivo, barnyard grass (Echinochloa crus-galli). As to conditions: foliage application, AAH 320 g/ha, three weeks after application. The method in brief:
as §1

The test system of the next data set is redroot pigweed. As to the kind of experiment: Test Example 5: herbicidal effect by foliage application, plastic box (Table 20, symbol N). Type of data set: in vivo, redroot pigweed (Amaranthus retroflexus). As to conditions: foliage application, AAH 320 g/ha, three weeks after application. The gist of the method:
as §1

Data set [4] has as its system chickweed. As to the kind of experiment: Test Example 4: herbicidal effect by soil treatment (Table 19, symbol P). Type of data set: in vivo, common chickweed (Stellaria media). The note with it: amount of applied herbicide 320 g/ha. The gist of the method:
as §2

The test system of the next data set is southern crabgrass. The data set is described as follows: Test Example 5: herbicidal effect by foliage application, plastic box (Table 20, symbol F). As to conditions: foliage application, AAH 320 g/ha, three weeks after application. Type of data set: in vivo, southern crabgrass (Digitaria ciliaris). The gist of the method: as §1
In a further data set the test system is rapeseed. As to the kind of experiment: Test Example 4: effect on crop by soil treatment (Table 19, symbol g). It counts as in vivo. As to conditions: amount of applied herbicide 320 g/ha. From the text:
[Test Example 4] Herbicidal Effect Test by Soil Treatment
(§3) Sterilized diluvial soil was placed in a plastic box having a length of 21 cm, a width of 13 cm, and a depth of 7 cm. The seeds of each of southern crabgrass, green foxtail, barnyard grass, wild oat, blackgrass, Italian ryegrass, windgrass, velvetleaf, redroot pigweed, lambsquarters, chickweed, false cleavers, persian speedwell, corn, soybean, rice, wheat, beet, and rapeseed were sowed in a spot-like manner and covered with the soil having a thickness of about 1.5 cm. Subsequently, the emulsion agent of the compound of the present invention prepared according to Formulation Example 2 was diluted with water so as to achieve a predetermined herbicide amount, and the diluted emulsion agent was uniformly applied to the surface of the soil with a small-sized spray. The plastic box was placed in a greenhouse at 25° C. to 30° C. for growth of the plants. Three weeks after the herbicide application, the effect of the herbicide on each plant was evaluated according to the criteria of Test Example 1.

The next data set concerns wheat. The data set is described as follows: Test Example 5: effect on crop by foliage application, plastic box (Table 20, symbol e). Type of data set: in vivo. As to conditions: AAH 320 g/ha, three weeks after application. The gist of the method:
as §1

The subject of another data set is false cleavers. As to the kind of experiment: Test Example 4: herbicidal effect by soil treatment (Table 19, symbol Q). As to conditions: amount of applied herbicide 320 g/ha. Type of data set: in vivo, false cleavers (Galium spurium). The method in brief: as §2
Data set [5] has as its system chickweed. As to the kind of experiment: Test Example 5: herbicidal effect by foliage application, plastic box (Table 20, symbol P). The note with it: foliage application, AAH 320 g/ha, three weeks after application. Type of data set: in vivo, common chickweed (Stellaria media). The method in brief:
as §1

Another data set deals with soybean. As to the kind of experiment: Test Example 5: effect on crop by foliage application, plastic box (Table 20, symbol d). It counts as in vivo. The note with it: AAH 320 g/ha, three weeks after application.
Description: [Test Example 5] Herbicidal Effect Test by Foliage Application
as §3, with “Thereafter, the plants were grown in a greenhouse at 25° C. to 30° C. After 14-day growth of the plants,” for “Subsequently,”, “a foliage part” for “the surface of the soil”, “spray.” for “spray. The plastic box was placed in a greenhouse at 25° C. to 30° C. for growth of the plants.”

The subject of data set [6] is wild oat. As to the kind of experiment: Test Example 5: herbicidal effect by foliage application, plastic box (Table 20, symbol I). Type of data set: in vivo, wild oat (Avena fatua). The note with it: foliage application, AAH 320 g/ha, three weeks after application. The method in brief: as §1
A further data set has as its system Italian ryegrass. The data set is described as follows: Test Example 4: herbicidal effect by soil treatment (Table 19, symbol K). Type of data set: in vivo, Italian ryegrass (Lolium multiflorum). The note with it: amount of applied herbicide 320 g/ha. The gist of the method:
as §2

This is an account of results in patent publication US20230085307A1, “PYRIDAZINONE COMPOUND AND HERBICIDE” (NISSAN CHEMICAL CORPORATION, priority 2019, published 2023).

Structures are written as SMILES.

In general, melting point refers to the temperature of the solid-liquid transition. The compound `Cc1nn(C)c(=O)c(-c2c(-n3cc(Cl)cn3)sc3ccccc23)c1O` [Compound No. 1-097, 5-hydroxy-2,6-dimethyl-4-(2-(4-chloro-1H-pyrazol-1-yl)benzo[b]thiophen-3-yl)pyridazin-3(2H)-one] showed a melting point of 232 to 234 °C. Also, in the data set on rice flat sedge, the “herbicidal effect on E (rice flat sedge), rating 0-5” value is 4 (Herbicidal rate of 70% or more and less than 90%). For the same compound, the “O: lambsquarters, herbicidal effect” value in the data set on lambsquarters [1] is given as 0 (Herbicidal rate of 5% or less (almost no effect)). In addition, the “herbicidal effect rating, R: persian speedwell” value with persian speedwell is reported as 0 (Herbicidal rate of 5% or less (almost no effect)). Moreover, the “herbicidal effect rating, I: wild oat” value in the data set with wild oat [2] is listed as 0 (Herbicidal rate of 5% or less (almost no effect)). The “herbicidal effect rating, J: blackgrass” value with blackgrass is on record as 0 (Herbicidal rate of 5% or less (almost no effect)). Besides, the “herbicidal effect rating, O: lambsquarters” value in the data set on lambsquarters [3] is 4 (Herbicidal rate of 70% or more and less than 90%). The “herbicidal effect rating, G: green foxtail” value in the data set on green foxtail is reported as 0 (Herbicidal rate of 5% or less (almost no effect)). For the same compound, the “M: velvetleaf, herbicidal effect” value in the data set on velvetleaf is given as 5 (Herbicidal rate of 90% or more (almost completely withered)). Also, the “H: barnyard grass, herbicidal effect” value with barnyard grass was 0 (Herbicidal rate of 5% or less (almost no effect)). Further, in the data set on redroot pigweed, the “N: redroot pigweed, herbicidal effect” value is 3 (Herbicidal rate of 40% or more and less than 70%). In the data set with chickweed [4], the “herbicidal effect rating, P: chickweed” value is 0 (Herbicidal rate of 5% or less (almost no effect)). For the same compound, the “F: southern crabgrass, herbicidal effect” value in the data set on southern crabgrass is 0 (Herbicidal rate of 5% or less (almost no effect)). Also, the “effect rating on crop, g: rapeseed” value in the data set with rapeseed is reported as 0 (Herbicidal rate of 5% or less (almost no effect)). Also, the “e: wheat, effect on crop” value in the data set on wheat was 0 (Herbicidal rate of 5% or less (almost no effect)). In addition, the “herbicidal effect rating, Q: false cleavers” value with false cleavers is given as 0 (Herbicidal rate of 5% or less (almost no effect)). The “P: chickweed, herbicidal effect” value in the data set with chickweed [5] is recorded as 5 (Herbicidal rate of 90% or more (almost completely withered)). For the same compound, the “d: soybean, effect on crop” value in the data set on soybean is 0 (Herbicidal rate of 5% or less (almost no effect)). For the same compound, the “I: wild oat, herbicidal effect” value in the data set on wild oat [6] was 0 (Herbicidal rate of 5% or less (almost no effect)). For the same compound, the “herbicidal effect rating, K: Italian ryegrass” value in the data set on Italian ryegrass was 0 (Herbicidal rate of 5% or less (almost no effect)).
